Reference: US20250302862A1, “SMALL RNA DRUG FOR INHIBITING ACTIVITY OF CANCER CELLS” (Institute of Basic Medical Sciences Chinese Academy of …, priority 2022, published 2025)

Assays:
[1] = system: primary lung cancer Kras^LSL-G12Dp53^fl/fl (KP) mouse model; assay: Survival of mice with primary lung cancer; format: in vivo; details: 10 nmol sRNA in sphingosine(d18:1) delivery system daily by gavage until death, vs NC group
Text: The mouse model of primary lung cancer was Kras^LSL-G12Dp53^fl/fl (KP).
Mice were weighed and assigned to the negative control group (NC group) and HQi-sRNA-2 group randomly. The NC group was the negative control, in which a sphingosine(d18:1)-NC-sRNA herbal medicine delivery system was constructed from NC-sRNA. The HQi-sRNA-2 group was the experimental group, in which a sphingosine(d18:1)-HQi-sRNA-2 herbal medicine delivery system was constructed from HQi-sRNA-2 and sphingosine(d18:1).
The herbal medicine delivery system was constructed by heating and mixing 10 nmol of sRNA, 100 ug of sphingosine(d18:1) and 300 ul of sterile enzyme-free water in a water bath at 90° C. for 15 minutes.
Each mouse with a uniform body weight was dosed by gavage. Each mouse was given 10 nmol of HQi-sRNA-2 mimic daily by gavage until death of the mouse.
The survival time of each mouse was recorded, the survival curve was plotted, and statistical analysis was performed.
Mice were weighed and assigned to the negative control group (NC group), MDM-sRNA-39 group and MDM-sRNA-163 group randomly. The NC group was the negative control, in which a sphingosine(d18:1)-NC-sRNA herbal medicine delivery system was constructed from NC-sRNA. The MDM-sRNA-39 group was an experimental group, in which a sphingosine(d18:1)-MDM-sRNA-39 herbal medicine delivery system was constructed from MDM-sRNA-39. The MDM-sRNA-163 group was an experimental group, in which a sphingosine(d18:1)-MDM-sRNA-163 herbal medicine delivery system was constructed from MDM-sRNA-163.

breast cancer MCF7 cells = assay: Apoptosis detection (Annexin V / PI); format: cell-based, human; details: 100 nmol/L, 48 h
Experimental: 1) MCF-7 cells with a cell density of more than 90% in 10 cm^2 dishes were plated in 12-well plates according to the cell growth rate, and transfected after 12 h, and the groups were divided as follows: • blank control group (4 wells): 200 uL of opti-MEM per well • negative control group (NC group) and experimental group (3 wells each): • A. 100 uL of opti-MEM and 2 uL of iMax were mixed well for 5 min • B. 100 uL of opti-MEM and 5 uL of small RNA (final concentration 100 nmol/L) were mixed well • C. solution A and solution B were mixed well and let stand for 15 min, and then was added to each well at a 200 uL system • Note: 100 uL of nuclease-free water was added to 2 nmol of small RNA dry powder for dissolution at a storage concentration of 20 umol/L
The supernatant and cells were collected after 48 h and washed twice with pre-chilled PBS. The 4 tubes of cells in the blank control group were added respectively with: (1) 200 uL of 1× binding buffer; (2) 200 uL of 1× binding buffer and 5 uL of Annexin V stain; (3) 200 uL of 1× binding buffer and 5 uL of PI stain; (4) 200 uL of 1× binding buffer, 5 uL of Annexin V stain and 5 uL of PI stain. […] The live cell population and the position of quadrant gate were selected according to the blank control group, and then the apoptosis of the NC group and the experimental group was detected. […]

[2] = system: pancreatic cancer BXPC-3 cells; assay: Cell invasion (Matrigel Transwell); format: cell-based, human; details: 100 nmol/L, jetPRIME, 72 h
Experimental: 1) Matrigel basement membrane matrix was thawed on crushed ice one night before and diluted with serum-free medium to a final concentration of 200-300 ug/mL. 100 uL of the diluted Matrigel was added to each upper chamber, let stand at 37° C. for 30 min, and the supernatant was aspirated. ASPC-1 cells and BXPC-3 cells with a cell density of more than 90% in 10 cm^2 dishes were digested and resuspended with 1 mL of serum-free medium and counted. 100,000 cells (100 uL) were plated in the upper chamber, and complete medium with 10% FBS was added to the lower chamber of each chamber. […]
1) Matrigel basement membrane matrix was thawed on crushed ice one night before and diluted with serum-free medium to a final concentration of 200-300 ug/mL. […] BXPC-3 cells with a cell density of more than 90% in 10 cm^2 dishes were digested and resuspended with 1 mL of serum-free medium and counted. […]

Substance	survival of mice with primary lung cancer [1]	apoptosis (breast cancer MCF7 cells)	cell invasion [2]
HQi-sRNA-2: small RNA derived from Scutellaria baicalensis, sequence AUGGUUCGAUUCCGGAGAGGG (listed as RNA, chemistry not given here)	significantly prolonged		
MDM-sRNA-39: small RNA derived from Maytenus hookeri, sequence GGGAUUGUAGUUCAAUUGGUCAGAGCACC (listed as RNA, chemistry not given here)	significantly prolonged	promotes	inhibits
MDM-sRNA-163: small RNA derived from Maytenus hookeri, sequence UGACUCUAGUCCGACUUUGUGAAAUGACU (listed as RNA, chemistry not given here)	significantly prolonged	promotes	inhibits
